Reference: the supplement of paper PMC10331698
± gives the standard deviation of the averaged measurements.

Legend:
Assay in all cases: level (log10 ratio to DMSO vehicle control); higher = higher biomarker level / cell amount than vehicle control
Conditions in all cases: in DMSO
[1] = compound: O=S(=O)(OCC(F)(F)F)C(F)(F)C(F)(F)C(F)(F)C(F)(F)F [2,2,2-Trifluoroethyl perfluorobutanesulfonate]
Method: (§1)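 BioMAP Diversity Plus panel of 12 human primary cell co-culture systems (3C, 4H, LPS, SAg, BT, BF4T, BE3C, CASM3C, HDF3CGF, KF3CT, MyoF, Mphg). Compounds were added 1 h before stimulation and left for 24 h (MyoF 48 h; BT 72 h for soluble read-outs or 6 d for IgG). Biomarkers were read by ELISA, cytotoxicity by SRB, PBMC viability and proliferation by Alamar Blue. Each well value was divided by the mean of 8 DMSO control wells on the same plate and log10 transformed; duplicate blinded samples were tested at 4 concentrations.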

[2] = compound: FC(F)(F)C(F)(F)C(F)(F)C(F)(F)CCI [1H,1H,2H,2H-Perfluorohexyl iodide]
Method: as §1

[3] = compound: O=S(=O)(O)CCC(F)(F)C(F)(F)C(F)(F)C(F)(F)F [4:2 Fluorotelomer sulfonic acid]
Method: as §1

[4] = compound: O=P(O)(O)CCC(F)(F)C(F)(F)C(F)(F)C(F)(F)C(F)(F)C(F)(F)F [2-(Perfluorohexyl)ethylphosphonic acid]
Method: as §1

[5] = compound: C=CC(=O)OCC(F)(F)C(F)(F)C(F)(F)C(F)(F)C(F)(F)C(F)(F)C(F)(F)C(F)F [1H,1H,9H-Perfluorononyl acrylate]
Method: as §1

[6] = compound: C=CC(=O)OCCC(F)(F)C(F)(F)C(F)(F)C(F)(F)C(F)(F)C(F)(F)C(F)(F)C(F)(F)F [8:2 Fluorotelomer acrylate]
Method: as §1

| Test System | level (log10) ([1]; 6700 nM) | level (log10) ([1]; 20000 nM) | level (log10) ([1]; 60000 nM) | level (log10) ([2]; 6700 nM) | level (log10) ([2]; 20000 nM) | level (log10) ([2]; 60000 nM) | level (log10) ([3]; 6700 nM) | level (log10) ([3]; 20000 nM) | level (log10) ([3]; 60000 nM) | level (log10) ([4]; 6700 nM) | level (log10) ([4]; 20000 nM) | level (log10) ([4]; 60000 nM) | level (log10) ([5]; 6700 nM) | level (log10) ([5]; 20000 nM) | level (log10) ([5]; 60000 nM) | level (log10) ([6]; 6700 nM) | level (log10) ([6]; 20000 nM) | level (log10) ([6]; 60000 nM) |
| --- | --- | --- | --- | --- | --- | --- | --- | --- | --- | --- | --- | --- | --- | --- | --- | --- | --- | --- |
| lMphg:CD106/VCAM-1 | -0.0355 ± 0.015 | -0.0215 ± 0.028 | -0.055 ± 0.024 | 0.0015 ± 0.018 | -0.0005 ± 0.016 | 0.009 ± 0.013 | -0.0145 ± 0.0078 | -0.0075 ± 0.011 | -0.0135 ± 0.005 | -0.001 ± 0.0028 | 0.006 ± 0.016 | -0.002 ± 0.038 | -0.03 | -0.029 ± 0.0099 | -0.0405 ± 0.0092 | 0 ± 0.013 | -0.015 ± 0.0014 | -0.0045 ± 0.03 |
| lMphg:CCL2/MCP-1 | -0.0115 ± 0.021 | -0.0245 ± 0.022 | -0.0405 ± 0.0035 | -0.028 ± 0.042 | -0.0285 ± 0.0021 | 0.008 ± 0.013 | 0.0005 ± 0.047 | 0.006 ± 0.025 | -0.001 ± 0.0071 | -0.004 ± 0.0071 | 0.01 ± 0.0042 | -0.0105 ± 0.005 | -0.009 ± 0.0099 | -0.025 ± 0.021 | -0.041 ± 0.055 | 0.0035 ± 0.021 | -0.0025 ± 0.0064 | -0.0235 ± 0.039 |
| 3C:CD54/ICAM-1 | -0.006 ± 0.0028 | -0.0105 ± 0.0021 | -0.0095 ± 0.0064 | -0.01 ± 0.041 | -0.027 ± 0.025 | -0.009 ± 0.054 | 0.001 ± 0.0014 | -0.0125 ± 0.0021 | 0.0045 ± 0.012 | -0.0165 ± 0.012 | -0.018 ± 0.0014 | -0.0095 ± 0.005 | -0.009 ± 0.0057 | -0.0085 ± 0.012 | -0.0105 ± 0.015 | -0.009 ± 0.02 | -0.0205 ± 0.018 | 0.002 ± 0.0085 |
| CASM3C:HLA-DR | 0.0015 ± 0.0064 | -0.0015 ± 0.0064 | 0.0125 ± 0.005 | -0.012 ± 0.0085 | -0.017 ± 0.02 | 0.0265 ± 0.081 | 0.0045 ± 0.0064 | -0.017 ± 0.014 | -0.0115 ± 0.00071 | 0.0045 ± 0.015 | 0.015 ± 0.023 | 0.0345 ± 0.046 | -0.0945 ± 0.044 | -0.04 ± 0.071 | 0.021 ± 0.033 | -0.0145 ± 0.0078 | -0.0045 ± 0.0021 | 0.022 ± 0.013 |
| HDF3CGF:CXCL11/I-TAC | -0.014 ± 0.016 | -0.0495 ± 0.00071 | -0.137 ± 0.016 | 0.006 ± 0.011 | -0.0165 ± 0.012 | -0.0835 ± 0.00071 | -0.0475 ± 0.059 | -0.037 ± 0.064 | -0.089 ± 0.024 | -0.005 | 0.0325 ± 0.0021 | 0.0425 ± 0.021 | -0.014 ± 0.0014 | -0.066 ± 0.033 | -0.214 ± 0.11 | -0.007 ± 0.0057 | -0.0095 ± 0.0021 | -0.0105 ± 0.028 |
| 3C:CCL2/MCP-1 | 0.0095 ± 0.011 | 0.004 ± 0.035 | 0.023 ± 0.057 | 0.015 ± 0.0014 | -0.0195 ± 0.0092 | 0.0055 ± 0.026 | 0.0035 ± 0.023 | 0.003 ± 0.054 | 0.0065 ± 0.025 | 0.001 ± 0.0042 | -0.0035 ± 0.019 | 0.019 ± 0.054 | 0.0115 ± 0.053 | -0.017 ± 0.016 | 0.008 ± 0.024 | 0.005 ± 0.0042 | -0.0155 ± 0.0064 | 0.019 ± 0.016 |
| lMphg:M-CSF | 0.035 ± 0.017 | 0.014 ± 0.018 | -0.006 ± 0.021 | -0.018 ± 0.017 | -0.0275 ± 0.018 | 0.0185 ± 0.0035 | -0.0105 ± 0.0078 | -0.024 ± 0.0099 | -0.0175 ± 0.0035 | -0.0175 ± 0.016 | -0.0335 ± 0.015 | -0.0075 ± 0.016 | 0.0155 ± 0.04 | -0.0225 ± 0.018 | -0.042 ± 0.025 | -0.0195 ± 0.042 | -0.013 ± 0.014 | -0.003 ± 0.016 |
| KF3CT:IL-1alpha | -0.011 ± 0.03 | -0.003 ± 0.011 | 0.0195 ± 0.0078 | 0.0115 ± 0.037 | 0.0105 ± 0.015 | 0.051 ± 0.0071 | -0.0155 ± 0.0021 | -0.0355 ± 0.0078 | -0.021 ± 0.021 | 0.0005 ± 0.0078 | 0.0225 ± 0.00071 | 0.0455 ± 0.012 | 0.021 ± 0.0042 | 0.023 ± 0.031 | 0.018 ± 0.0085 | 0.0005 ± 0.011 | -0.0245 ± 0.00071 | -0.0355 ± 0.04 |
| BE3C:SRB | 0 ± 0.0071 | 0.004 ± 0.0042 | 0.005 | -0.003 ± 0.0028 | -0.0035 ± 0.00071 | 0.002 ± 0.011 | 0.0015 ± 0.00071 | -0.007 ± 0.0085 | 0.0005 ± 0.0078 | -0.01 ± 0.0042 | -0.001 ± 0.0085 | 0.001 ± 0.02 | -0.004 | 0.0005 ± 0.005 | 0.001 ± 0.016 | -0.0045 ± 0.0021 | -0.0045 ± 0.0064 | 0.006 ± 0.018 |
| 3C:CD106/VCAM-1 | -0.0165 ± 0.012 | -0.016 ± 0.0085 | 0.0015 ± 0.0021 | 0.0045 ± 0.026 | -0.015 ± 0.0014 | -0.0145 ± 0.021 | -0.022 ± 0.028 | 0.006 ± 0.024 | 0.005 ± 0.021 | -0.012 ± 0.03 | -0.004 ± 0.025 | 0.0055 ± 0.061 | -0.03 | -0.022 ± 0.0057 | -0.042 ± 0.02 | -0.0185 ± 0.015 | -0.027 ± 0.041 | -0.024 ± 0.05 |
| HDF3CGF:Collagen I | -0.0325 ± 0.016 | -0.0635 ± 0.04 | -0.047 ± 0.028 | 0.004 ± 0.047 | -0.0205 ± 0.063 | 0.015 ± 0.11 | -0.0015 ± 0.054 | -0.007 ± 0.0057 | 0.0385 ± 0.018 | -0.016 ± 0.0042 | -0.0365 ± 0.005 | -0.0865 ± 0.09 | -0.0115 ± 0.016 | -0.0075 ± 0.056 | -0.0605 ± 0.11 | -0.025 ± 0.0028 | -0.008 ± 0.0071 | 0.0325 ± 0.018 |
| KF3CT:PAI-I | 0.0005 ± 0.028 | 0.003 ± 0.033 | 0.0265 ± 0.018 | -0.0025 ± 0.023 | -0.001 ± 0.013 | -0.0225 ± 0.015 | -0.005 ± 0.0071 | -0.015 ± 0.0014 | -0.0175 ± 0.0064 | -0.033 ± 0.037 | -0.0505 ± 0.028 | -0.039 ± 0.025 | -0.017 | -0.023 ± 0.042 | -0.0465 ± 0.022 | -0.009 ± 0.014 | 0.0155 ± 0.012 | 0.001 ± 0.0085 |
| 3C:CD142/Tissue Factor | 0.0285 ± 0.046 | 0.011 ± 0.037 | -0.018 ± 0.034 | -0.0125 ± 0.028 | 0.0155 ± 0.047 | 0.0725 ± 0.037 | -0.007 ± 0.044 | 0.0225 ± 0.011 | 0.024 ± 0.025 | 0.0325 ± 0.0078 | 0.04 ± 0.035 | 0.119 ± 0.0021 | -0.007 ± 0.0028 | -0.0145 ± 0.016 | -0.024 ± 0.033 | 0.0065 ± 0.029 | 0.0115 ± 0.0035 | 0.0155 ± 0.021 |
| HDF3CGF:EGFR | -0.0215 ± 0.077 | -0.022 ± 0.09 | 0.047 ± 0.03 | 0.0025 ± 0.026 | -0.006 ± 0.038 | 0.015 ± 0.047 | -0.0575 ± 0.093 | -0.042 ± 0.054 | -0.019 ± 0.079 | -0.012 ± 0.034 | -0.0255 ± 0.005 | 0.0195 ± 0.025 | -0.019 ± 0.023 | 0.017 ± 0.0014 | 0.045 ± 0.013 | -0.003 ± 0.041 | -0.028 ± 0.031 | 0.006 ± 0.011 |
| MyoF:alpha-SM Actin | -0.0265 ± 0.025 | -0.0175 ± 0.047 | -0.0235 ± 0.005 | 0.03 ± 0.064 | 0.0325 ± 0.064 | 0.043 ± 0.034 | 0 ± 0.052 | 0.022 ± 0.0028 | 0.035 ± 0.0028 | 0.037 ± 0.079 | 0.0415 ± 0.067 | 0.0575 ± 0.063 | -0.041 ± 0.0014 | -0.075 ± 0.011 | -0.182 ± 0.028 | 0.0185 ± 0.069 | 0.0145 ± 0.063 | 0.009 ± 0.059 |
| CASM3C:CD141/Thrombomodulin | -0.0045 ± 0.0021 | 0.008 ± 0.037 | 0.0045 ± 0.0064 | -0.0085 ± 0.021 | -0.009 ± 0.014 | 0.0275 ± 0.049 | -0.01 ± 0.031 | -0.021 ± 0.0099 | -0.0045 ± 0.029 | 0.027 ± 0.017 | 0.0185 ± 0.011 | 0.016 ± 0.0042 | -0.014 ± 0.069 | -0.0095 ± 0.0078 | -0.0175 ± 0.033 | 0.0125 ± 0.011 | -0.005 ± 0.0071 | 0.009 ± 0.013 |
